Test results reported in patent US20250025440A1, “COMPOSITIONS AND METHODS FOR MANAGEMENT OF HUMAN PAPILLOMA VIRUS-ASSOCIATED CANCERS” (LOMA LINDA UNIVERSITY, priority 2021, published 2025).
Read-outs that look alike come from different tables or passages of the source.

How the values were obtained:
[1] = test system: HPV- (SCC19, SCC29) and HPV+ (SCC47, SCC104, SCC152) HNSCC cell lines; experiment: Sensitization of HNSCC cell lines to photon radiation; type: cell-based; details: radiation 0-4Gy followed by inhibitor; DER10
Protocol: The dose enhancement ratio for 10% survival (DER10) was calculated as follows: DER10=(Dose correlated with 10% survival fraction in radiation-treated cells)/(Dose correlated with 10% survival fraction in radiation and inhibitor treated cells).
CCDP, Cetuximab, and GA-OH were evaluated for their ability to sensitize HNSCC cell lines to photon radiation.
Colonies were counted after 14-21 days and normalized to vehicle control and survival analysis was performed.
Sensitization of an additional HPV^+ cell line to radiation by CDDP, Cetuximab and GA-OH was evaluated.

[2] = target: T1, full-length HPV E6 binding to human Caspase 8 (Human papillomavirus type 16, UniProt P03126); details: for inhibition of E6-caspase 8 binding relative to GA: SAR analogs
T1 construct: made in house; host or cells: E. coli
Protocol: Three structurally diverse libraries (Prestwick library, Microsource Spectrum library and an in-house collection at Kansas University; see Table 1) were screened for the ability of compounds to inhibit the binding of full-length HPV E6 to human Caspase 8 using a previously optimized AlphaScreen™ protocol.
The compounds were diluted to a working concentration in DMSO and screened at a single-point final concentration of 10 μM with no replicates. Briefly, 75 nL of each compound was transferred and added to wells of the destination 384-well plate using the Echo dispenser to 4 μL of blocking solution. 4 μL of 800 nM GST-E6 and 4 μL of His6-Caspase 8 were added and pre-incubated at room temperature for 60 minutes. 8 μL of the donor and acceptor bead mixture (final concentration of 20 μg/ml) was then added. The plates were sealed and incubated for 4 hours at room temperature before the plates were read using the Envision™ Multi-Label plate reader (Perkin Elmer Inc.). […] A 10-point serial dilution of these compounds was done for dose-dependency reconfirmation. Dose response inhibition curves were constructed and IC50 calculated using GraphPad Prism using four parameter non-linear regression analysis.
The first counter-screen assay was based using the GST-His6 fusion peptide as the E6-binding partner instead of GST-E6-His6-Caspase 8. Hit candidate compounds from the primary screen were prepared using a 6-point serial dilution. Using an Echo dispenser, compounds were transferred to plates containing 4 μL of blocking buffer. 8 μL of 5 nM GST-His6 peptide substrate was then added. The mixture was pre-incubated at room temperature for 60 minutes. Glutathione donor and nickel chelate acceptor beads (final concentration 20 μg/mL) were added and incubated for another 60 minutes at room temperature. Dose-dependency of the compounds using GST-E6-His6-Caspase 8 was performed in parallel using the same protocol as in the primary screen. The signals were then read using the Envision™ plate reader.
(§1) Using the SciFinder and Zinc15 databases, several gambogic acid structural analogs were identified and selected. The 8 analogs were obtained as follow: gambogenic amide (Enzo Life Sciences), gambogenic acid (Selleckchem), morellic acid (Aobious), 30-hydroxy gambogic acid (Quality Phytochemicals, LLC), acetyl gambogic acid (Microsource), and gambogin, neogambogic acid and isomorellinol (MolPort Natural Products). Additional gambogic acid was purchased from Tocris. The interactions of the analogues with E6-caspase 8 was tested using AlphaScreen™ technology using the same protocol as with the primary screen, and were compared to the parent compound. The effect on cell viability was also similarly done in HPV^+ and HPV^− cell lines via the MTT assay (see below) and potency was determined using GraphPad IC50 curve fitting.

[3] = test system: SCC104 (HPV+ HNSCC cell line); experiment: MTT cell viability of gambogic acid analogs; type: cell-based; details: for rank among highest IC50s relative to the parent compound: SCC104, MTT
Protocol: Next, the analogs were evaluated for functional activity using the HPV^+ HNSCC cell line, SCC104, in the MTT assay as described previously to determine whether similar findings would be observed as in the in vitro AlphaScreen™ analysis. With one exception, the patterns were similar to the AlphaScreen™ data, but the differences were relatively more pronounced in the cell-based screen (FIG. 6B). […] Based on these findings, 30-hydroxygambogic acid (GA-OH) was selected as a candidate for more extensive functional studies.
as §1
(§2) All working concentrations were diluted in PBS to the desired concentration before use. To test the effect of gambogic acid and/or its derivatives on cell viability, all cell lines were seeded at 2×10^4 per well in 96-well plates and allowed to adhere overnight. Various concentrations of the analogues were added and the cells incubated at 37° C. for 24 hr. Viability was then measured using the MTT assay, performed as described previously. All experiments were repeated at least three times (three biological replicates, carried out on different days). Data presented are from a representative experiment. Cell viability and potency were assessed from % inhibition relative to the vehicle control, and IC50 dose curves were generated using GraphPad Prism.

[4] = target: T2, E6 binding to E6AP (GST-E6 and His6-E6AP) (Human papillomavirus type 16, UniProt P03126); experiment: AlphaScreen E6-E6AP binding (cross-validation); details: head to head comparison gambogic acid vs myricetin; read-out: IC50 against E6-E6AP
T2 construct: made in house; host or cells: E. coli (stated for GST-E6 only)
Protocol: Its activity was then cross-validated by performing additional AlphaScreening™ tests using GST-E6 and His6-E6AP as substrates. […] The activity of these two inhibitors against E6-Caspase 8 binding were evaluated in parallel for a head to head comparison.
The selected compound(s) were then cross-validated with a related but different primary screen assay. Specifically, the caspase 8 used in the primary screen was replaced with E6AP and the inhibitory activity was evaluated against E6 binding to E6AP (E6-E6AP) using the same steps as in the AlphaScreen™ protocol described above.

[5] = test system: HPV+ (SCC47, SCC090, SCC104, SCC152) and HPV- (SCC19, SCC29, SCC49, SCC84) HNSCC cell lines; experiment: MTT cell viability, HNSCC panel; type: cell-based
Protocol: While SAR studies using the SCC104 cell line provided evidence of the activity of the analogs, further studies were conducted to assess not just the potency, but also the selectivity. As a step towards that goal, the efficacy of GA-OH was evaluated in a panel containing both HPV^+ and HPV^− HNSCC cell lines using MTT cell viability assays. Four HPV^+ cell lines (SCC47, SCC090, SCC104, SCC152) and four HPV^− cell lines (SCC19, SCC29, SCC49, SCC84) were utilized. GA-OH behaved dose dependently in cell lines both with or without HPV. […] FIGS. 7A-7C are graphical representations of the sensitivity of HPV^+ cell lines and HPV^− cell lines to GA-OH-mediated growth inhibition. FIG. 7A is a graphical representation of the cell growth inhibition of HNSCC HPV^+ and HPV^− cell lines by GA-OH (+ and closed shapes represent HPV^+ cell lines and − and open shapes the HPV^− cell lines). […] These cells were good controls, as HPV is an established causative agent in CC carcinogenesis. Two HPV^+ cell lines, SiHa and CaSki were selected as the positive controls and the Saos-2 cell line was used as an HPV-negative control. […] FIG. 7B is a graphical representation of the cell growth inhibition of cervical cancer HPV^+ and HPV^− cell lines by GA-OH. HPV^+ cell lines display higher sensitivity than do HPV^− cell lines as shown by the leftwards shift of the HPV^+ curves (SCC47, 90, 104, 152 in FIG. 7A and SiHa and CaSki in FIG. 7B).
as §2, with “All experiments were repeated at least three times (three biological replicates, carried out on different days). Data presented are from a representative experiment.” left out

[6] = toxicities to organs only at high concentrations; cited from earlier work

T1 sequence (P03126 whole entry): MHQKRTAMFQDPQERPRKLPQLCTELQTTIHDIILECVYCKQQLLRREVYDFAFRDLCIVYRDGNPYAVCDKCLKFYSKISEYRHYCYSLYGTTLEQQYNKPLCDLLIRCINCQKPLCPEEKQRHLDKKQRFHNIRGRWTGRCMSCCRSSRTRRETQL
T2 sequence (P03126 whole entry): as above

SMILES: [NH2][Pt]([NH2])([Cl])[Cl] [CDDP, cisplatin, reference compound]
- sensitization to photon radiation [1]: greatest sensitization

SMILES: CC(C)=CCc1c2c(c(O)c3c1O[C@]14C(=C[C@@H]5C[C@H]1C(C)(C)O[C@@]4(C/C=C(/C)C(=O)O)C5=O)C3=O)C=CC(C)(C)O2 [analog #2, morellic acid]
- inhibition of E6-caspase 8 binding relative to GA [2]: did not significantly affect the activity

SMILES: CC(C)=CCC/C(C)=C/Cc1c(O)c(CC=C(C)C)c2c(c1O)C(=O)C1=C[C@@H]3C[C@H]4C(C)(C)O[C@@](C/C=C(/C)C(=O)O)(C3=O)[C@@]14O2 [analog #3, gambogenic acid]
- rank among highest IC50s relative to the parent compound [3]: third

SMILES: CC(C)=CCC[C@]1(C)C=Cc2c(O)c3c(c(CC=C(C)C)c2O1)O[C@]12C(=C[C@@H]4CC1C(C)(C)O[C@@]2(C/C=C(/C)C(N)=O)C4=O)C3=O [analog #4, gambogic amide]
- inhibition of E6-caspase 8 binding relative to GA [2]: did not significantly affect the activity

SMILES: CC(C)=CCCC1(C)CC(O)c2c(O)c3c(c(CC=C(C)C)c2O1)OC12C(=CC4CC1C(C)(C)OC2(C/C=C(\C)C(=O)O)C4=O)C3=O (stereo not shown) [analog #5, neo-gambogic acid]
- rank among highest IC50s relative to the parent compound [3]: fourth

SMILES: CC(C)=CCCC1(C)C=Cc2c(O)c3c(c(CC=C(C)C)c2O1)O[C@]12C(=CC4C[C@H]1C(C)(C)OC2(CC=C(C)C)C4=O)C3=O (stereo partly shown) [analog #6, gambogin]
- rank among highest IC50s relative to the parent compound [3]: first

SMILES: CC(C)=CCc1c2c(c(O)c3c1OC14C(=CC5CC1C(C)(C)OC4(C/C=C(\C)CO)C5=O)C3=O)C=CC(C)(C)O2 (stereo not shown) [analog #7, iso morellinol]
- inhibition of E6-caspase 8 binding relative to GA [2]: did not significantly affect the activity

SMILES: CC(=O)Oc1c2c(c(CC=C(C)C)c3c1C(=O)C1=C[C@@H]4CC5C(C)(C)OC(C/C=C(\C)C(=O)O)(C4=O)[C@@]15O3)OC(C)(CCC=C(C)C)C=C2 (stereo partly shown) [analog #8, acetyl iso-gambogic acid]
- inhibition of E6-caspase 8 binding relative to GA [2]: did not significantly affect the activity
- potency in MTT assay ([3]; SCC104, 24 hr): diminished activity

SMILES: CC(C)=CCC[C@]1(C)C=Cc2c(O)c3c(c(CC=C(C)C)c2O1)O[C@]12C(=C[C@@H]4C[C@H]1C(C)(C)O[C@@]2(C/C=C(/C)C(=O)O)C4=O)C3=O [gambogic acid]
- IC50 ([2]; 11 compounds that passed counter-screening, read-out: IC50 (μM) against E6-Caspase 8 binding): 2 µM
- IC50 ([2]; head to head comparison gambogic acid vs myricetin, read-out: IC50 against E6-Caspase 8): 1.9 µM
- IC50 [4]: 1.7 µM
- potency and selectivity for HPV+ versus HPV- cells [5]: significantly more sensitive
- tolerability in animal studies [6]: relatively tolerable

SMILES: O=c1c(O)c(-c2cc(O)c(O)c(O)c2)oc2cc(O)cc(O)c12 [myricetin, reference compound]
- IC50 ([2]; read-out: IC50 against E6-Caspase 8): 4.6 µM
- IC50 [4]: 5.6 µM
